ED50 data for 7 compounds are collected here from patent EP0093488A2, “Nortropyl benzopyrrolinone compounds, process for their preparation and pharmaceutical compositions containing them” (BEECHAM GROUP PLC, priority 1982, dated 1983).

The subject of this assay is post-synaptic Dopamine (D.A.) receptors. Description: Inhibition of apomorphine induced climbing in the mouse. The assay is classed as in vivo. Particulars: dose for 50% inhibition of apomorphine (1 mg/kg s.c.) induced climbing, male CD1 mice, 30 min.

For the setting “½ hour post dosing po”, “4-Chloro- and 6-Chloro-5-amino-2-(3β-N-(9-(4^1-methylbenzyl) -9-azabicyclo[3.3.1]nonyl)]phthalimidine [Compound E8]” had an ED50 of 0.5 mg/kg.
On to `CN(C)S(=O)(=O)c1ccc2c(c1)C(=O)N([C@@H]1C[C@H]3CC[C@@H](C1)N3Cc1ccccc1)C2` [Compound E9, 6-Dimethylaminosulphonyl-2-N-[3β(8-benzyl-8-azabicyclo [3.2.1]octyl)]phthalimidine], for which the ED50 (subcutaneous dosing) is on record as 3.0 (subcutaneous dosing) mg/kg.
In turn, `Cc1ccc(CN2[C@@H]3CCC[C@H]2C[C@H](N2Cc4cc(N)ccc4C2=O)C3)cc1` [Compound E6, 5-Amino-2-[3β-N-(9-(4^1-methylbenzyl)-9-azabicyclo[3.3.1]nonyl)]phthalimidine] came in with an ED50 (½ hour post dosing po) of 0.3 mg/kg.
Where the note is “½ hour post dosing po”, `O=C1c2ccc(Cl)cc2CN1[C@@H]1C[C@H]2CCC[C@@H](C1)N2Cc1ccc(F)cc1` [Compound E3] had an ED50 of 1.2 mg/kg.
`Nc1ccc2c(c1)CN([C@@H]1C[C@H]3CCC[C@@H](C1)N3Cc1ccc(F)cc1)C2=O` [Compound E5, 5-Amino-2-(3β-N-(9-(4^1-fluorobenzyl)-9-azabicyclo[3.3.1]nonyl)]phthalimidine] had an ED50 (½ hour post dosing po) of 0.6 mg/kg.
`Cc1ccc(CN2[C@@H]3CCC[C@H]2C[C@H](N2Cc4ccccc4C2=O)C3)cc1` [Compound E1] gave an ED50 (½ hour post dosing po) of 1.1 mg/kg.
Regarding `Cc1ccc(CN2[C@@H]3CCC[C@H]2C[C@H](N2Cc4cc(Cl)ccc4C2=O)C3)cc1` [Compound E2], the ED50 (½ hour post dosing po) came out at 0.5 mg/kg.
